Reference: ChEMBL document CHEMBL5032523, “Discovery of thiazolidin-4-one analogue as selective GSK-3β inhibitor through structure based virtual screening” (Bioorg Med Chem Lett, 2021)
Activity calls are given as the source filed them. No cut-off for these calls is given here.

Tests used:
[1] = target: T1, Dual specificity tyrosine-phosphorylation-regulated kinase 1A (Homo sapiens, UniProt Q13627); assay: Inhibition of DYRK1A (unknown origin) at 10 uM relative to control
[2] = target: T2, Cyclin-dependent kinase 5 (Homo sapiens, UniProt Q00535); assay: Inhibition of CDK5 (unknown origin) at 10 uM relative to control
Target sequence in this assay (Q00535 whole entry, looked up): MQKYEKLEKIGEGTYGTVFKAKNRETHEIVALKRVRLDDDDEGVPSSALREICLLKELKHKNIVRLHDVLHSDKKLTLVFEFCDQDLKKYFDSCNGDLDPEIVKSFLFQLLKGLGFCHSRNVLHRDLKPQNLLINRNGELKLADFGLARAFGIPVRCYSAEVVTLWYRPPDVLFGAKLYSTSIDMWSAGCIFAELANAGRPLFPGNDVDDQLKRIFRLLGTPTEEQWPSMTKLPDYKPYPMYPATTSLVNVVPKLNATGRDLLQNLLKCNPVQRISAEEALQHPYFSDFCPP

[3] = target: T3, Cyclin-dependent kinase 9 (Homo sapiens, UniProt P50750); assay: Inhibition of CDK9 (unknown origin) at 10 uM relative to control
T3 sequence (P50750 whole entry): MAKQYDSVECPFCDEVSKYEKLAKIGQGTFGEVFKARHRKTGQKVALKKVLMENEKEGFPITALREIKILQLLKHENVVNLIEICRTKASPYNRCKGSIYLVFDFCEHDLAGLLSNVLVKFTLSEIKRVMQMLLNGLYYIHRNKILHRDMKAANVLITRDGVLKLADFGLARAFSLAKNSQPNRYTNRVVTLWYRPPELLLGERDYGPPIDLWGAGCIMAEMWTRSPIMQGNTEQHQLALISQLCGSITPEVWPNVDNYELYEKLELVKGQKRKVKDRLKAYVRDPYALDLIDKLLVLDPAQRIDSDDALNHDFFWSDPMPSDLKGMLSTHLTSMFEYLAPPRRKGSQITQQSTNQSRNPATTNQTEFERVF

[4] = target: T4, Serine/threonine-protein kinase pim-1 (Homo sapiens, UniProt P11309); assay: Inhibition of PIM1 (unknown origin) at 10 uM relative to control
Target sequence in this assay (P11309 whole entry, looked up): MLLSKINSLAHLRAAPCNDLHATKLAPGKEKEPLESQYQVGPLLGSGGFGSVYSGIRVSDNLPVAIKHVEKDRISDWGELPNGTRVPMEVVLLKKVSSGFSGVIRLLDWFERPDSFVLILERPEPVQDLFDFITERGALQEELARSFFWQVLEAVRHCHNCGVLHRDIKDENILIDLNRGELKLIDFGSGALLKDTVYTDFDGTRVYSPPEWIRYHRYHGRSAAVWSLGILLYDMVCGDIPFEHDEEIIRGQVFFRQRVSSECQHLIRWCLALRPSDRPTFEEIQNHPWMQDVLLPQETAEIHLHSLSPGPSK

[5] = target: T5, Dual specificity protein kinase CLK1 (Homo sapiens, UniProt P49759); assay: Inhibition of CLK1 (unknown origin) at 10 uM relative to control
Target sequence in this assay (P49759 whole entry, looked up): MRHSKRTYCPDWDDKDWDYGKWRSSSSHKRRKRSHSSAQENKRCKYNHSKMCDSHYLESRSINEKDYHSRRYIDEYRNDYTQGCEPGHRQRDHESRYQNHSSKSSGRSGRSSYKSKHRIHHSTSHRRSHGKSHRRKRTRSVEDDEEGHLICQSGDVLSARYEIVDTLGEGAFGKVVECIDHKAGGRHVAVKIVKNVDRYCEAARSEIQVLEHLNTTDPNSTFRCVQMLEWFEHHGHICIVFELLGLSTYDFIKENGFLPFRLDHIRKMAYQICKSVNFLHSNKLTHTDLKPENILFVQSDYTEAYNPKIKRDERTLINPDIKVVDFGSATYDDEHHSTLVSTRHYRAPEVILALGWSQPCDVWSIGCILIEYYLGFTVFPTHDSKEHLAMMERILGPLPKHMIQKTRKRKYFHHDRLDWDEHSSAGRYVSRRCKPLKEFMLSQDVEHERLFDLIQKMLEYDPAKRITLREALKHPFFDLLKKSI

[6] = target: T6, Serine/threonine-protein kinase haspin (Homo sapiens) (UniProt Q8TF76); assay: Inhibition of HASPIN (unknown origin) at 10 uM relative to control
T6 sequence (whole entry): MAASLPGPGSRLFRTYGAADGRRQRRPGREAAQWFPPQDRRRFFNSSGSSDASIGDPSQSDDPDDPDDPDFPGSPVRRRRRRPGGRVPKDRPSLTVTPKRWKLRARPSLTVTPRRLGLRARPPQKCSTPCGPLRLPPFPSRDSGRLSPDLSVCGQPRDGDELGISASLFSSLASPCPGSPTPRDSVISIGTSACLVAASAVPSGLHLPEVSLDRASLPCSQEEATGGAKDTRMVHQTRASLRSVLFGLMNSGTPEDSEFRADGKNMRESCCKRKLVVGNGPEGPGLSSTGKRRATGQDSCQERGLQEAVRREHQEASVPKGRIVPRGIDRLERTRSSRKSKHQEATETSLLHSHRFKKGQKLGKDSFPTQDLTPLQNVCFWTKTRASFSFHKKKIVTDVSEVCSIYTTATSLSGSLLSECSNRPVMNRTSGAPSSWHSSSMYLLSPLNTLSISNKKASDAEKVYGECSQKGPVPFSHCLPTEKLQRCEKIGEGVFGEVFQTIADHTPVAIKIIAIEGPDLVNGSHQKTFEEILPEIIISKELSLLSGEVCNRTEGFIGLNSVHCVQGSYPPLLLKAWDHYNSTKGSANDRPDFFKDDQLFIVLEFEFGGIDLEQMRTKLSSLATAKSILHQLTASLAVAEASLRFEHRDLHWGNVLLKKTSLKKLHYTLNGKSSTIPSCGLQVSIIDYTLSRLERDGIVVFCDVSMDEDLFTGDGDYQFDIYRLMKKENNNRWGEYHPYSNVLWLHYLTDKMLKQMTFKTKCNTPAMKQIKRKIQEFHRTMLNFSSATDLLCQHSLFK

[7] = target: T7, Glycogen synthase kinase-3 beta (Homo sapiens, UniProt P49841); assay: Inhibition of GSK3beta (unknown origin) at 10 uM relative to control
Target sequence in this assay (P49841 whole entry, looked up): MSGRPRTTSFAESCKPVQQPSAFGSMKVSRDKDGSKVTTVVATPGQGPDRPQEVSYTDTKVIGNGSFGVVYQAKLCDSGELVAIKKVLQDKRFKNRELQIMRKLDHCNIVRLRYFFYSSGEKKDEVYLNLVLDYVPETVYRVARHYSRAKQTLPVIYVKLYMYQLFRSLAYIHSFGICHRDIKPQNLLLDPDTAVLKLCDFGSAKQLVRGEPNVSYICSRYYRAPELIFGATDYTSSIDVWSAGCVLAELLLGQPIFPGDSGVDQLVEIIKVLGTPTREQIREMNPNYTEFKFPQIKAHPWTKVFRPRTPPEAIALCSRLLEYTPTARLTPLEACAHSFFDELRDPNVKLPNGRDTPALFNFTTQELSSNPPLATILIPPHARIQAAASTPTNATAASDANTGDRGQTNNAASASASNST

[8] = target: T8, Casein kinase I delta/epsilon (Homo sapiens, UniProt P48730+P49674); assay: Inhibition of CK-1 delta/epsilon (unknown origin) at 10 uM relative to control; type: protein-complex assay
Target sequence in this assay (P48730 whole entry, looked up): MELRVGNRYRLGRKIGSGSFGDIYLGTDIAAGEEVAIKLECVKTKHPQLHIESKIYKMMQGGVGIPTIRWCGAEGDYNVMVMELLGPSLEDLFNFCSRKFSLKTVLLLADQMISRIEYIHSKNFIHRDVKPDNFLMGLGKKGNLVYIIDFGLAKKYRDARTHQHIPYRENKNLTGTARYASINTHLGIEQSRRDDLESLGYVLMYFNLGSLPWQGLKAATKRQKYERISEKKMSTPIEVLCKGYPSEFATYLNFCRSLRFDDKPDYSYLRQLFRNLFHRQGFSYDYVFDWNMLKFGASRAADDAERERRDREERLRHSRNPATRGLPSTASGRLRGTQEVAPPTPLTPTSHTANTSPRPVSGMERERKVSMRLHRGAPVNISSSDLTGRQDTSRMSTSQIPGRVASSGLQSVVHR
Target sequence in this assay (P49674 whole entry, looked up): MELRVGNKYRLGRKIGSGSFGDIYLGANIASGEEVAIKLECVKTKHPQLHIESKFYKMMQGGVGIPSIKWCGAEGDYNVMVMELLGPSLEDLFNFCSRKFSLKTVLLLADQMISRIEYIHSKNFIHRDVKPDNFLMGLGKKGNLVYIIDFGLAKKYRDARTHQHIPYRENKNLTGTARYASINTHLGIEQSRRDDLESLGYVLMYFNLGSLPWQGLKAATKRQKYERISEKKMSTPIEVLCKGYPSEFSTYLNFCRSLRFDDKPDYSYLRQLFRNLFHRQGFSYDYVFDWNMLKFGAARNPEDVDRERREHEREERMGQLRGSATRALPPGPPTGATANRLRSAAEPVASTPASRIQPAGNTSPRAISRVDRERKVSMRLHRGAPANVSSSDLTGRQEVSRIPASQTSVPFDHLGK

[9] = target: T2, Cyclin-dependent kinase 5; assay: Inhibition of CDK5 (unknown origin)
Target sequence in this assay (Q00535 whole entry): as the sequence (Q00535 whole entry, looked up) above

[10] = target: T3, Cyclin-dependent kinase 9; assay: Inhibition of CDK9 (unknown origin)
[11] = target: T4, Serine/threonine-protein kinase pim-1; assay: Inhibition of PIM1 (unknown origin)
Target sequence in this assay (P11309 whole entry): as the sequence (P11309 whole entry, looked up) above

[12] = target: T5, Dual specificity protein kinase CLK1; assay: Inhibition of CLK1 (unknown origin)
Target sequence in this assay (P49759 whole entry): as the sequence (P49759 whole entry, looked up) above

[13] = target: T1, Dual specificity tyrosine-phosphorylation-regulated kinase 1A; assay: Inhibition of DYRK1A (unknown origin)
[14] = target: T9, Serine/threonine-protein kinase haspin (Homo sapiens, UniProt Q8TF76); assay: Inhibition of HASPIN (unknown origin)
T9 sequence (Q8TF76 whole entry): T6 sequence (whole entry)

[15] = target: T7, Glycogen synthase kinase-3 beta; assay: Inhibition of GSK3beta (unknown origin)
Target sequence in this assay (P49841 whole entry): as the sequence (P49841 whole entry, looked up) above

[16] = target: T8, Casein kinase I delta/epsilon; assay: Inhibition of CK-1 delta/epsilon (unknown origin); type: protein-complex assay
Target sequence in this assay (P48730 whole entry): as the sequence (P48730 whole entry, looked up) above
Target sequence in this assay (P49674 whole entry): as the sequence (P49674 whole entry, looked up) above

[17] = target: T7, Glycogen synthase kinase-3 beta; assay: Non-competitive inhibition of GSK3beta (unknown origin) at 50 uM by ATP competitive assay
Target sequence in this assay (P49841 whole entry, looked up): as the sequence (P49841 whole entry, looked up) above

SMILES	inhibition [1]	inhibition [2]	inhibition [3] [%]	inhibition [4] [%]	inhibition [5]	inhibition [6]	inhibition [7] [%]	inhibition [8] [%]	IC50 [9] [µM]	IC50 [10] [µM]	IC50 [11] [µM]	IC50 [12] [µM]	IC50 [13] [µM]	IC50 [14] [µM]	IC50 [15] [µM]	IC50 [16] [µM]	inhibition [17]
Clc1ccccc1OCCc1cc([C@@H]2CCN(Cc3cccc4ncccc34)C2)n[nH]1	inactive	inactive	18	19	11%	inactive	5	28									
COc1cc(/C=C2\S/C(=N/c3ccc(C)c(C)c3)NC2=O)ccc1OCc1ccc2ccccc2c1	16%	11%	29	29	22%	22%	80	14	> 10	> 10	> 10	> 10	> 10	> 10	1.08	> 10	Active
Clc1cccc(OCCc2cc([C@@H]3CCN(Cc4cccc5ncccc45)C3)n[nH]2)c1	inactive	inactive	29	22	9%	33%	10	37									
Cc1cc(C)c2cc(CN(CCc3ccccc3)Cc3nnnn3Cc3ccco3)c(=O)[nH]c2c1	6%	7%	23	16	inactive	29%	25	12									
